Measured values reported in patent US8299102B2, “Heteroarylcyclopropanecarboxamides and their use as pharmaceuticals” (Sanofi, priority 2006, dated 2012).
Structures can show the parent of a compound that is named as a salt.

Tested on: eNOS promoter
Experiment: Activation of eNOS transcription (eNOS promoter firefly luciferase reporter gene assay)
Format: cell-based
Details: human endothelial cell line stably transfected with eNOS promoter-luciferase construct; 18 h incubation; determined graphically; read-out: EC50 values of transcription induction ratios (TIR)
Procedure: Activation of eNOS transcription was measured as described in detail by Li et al., “Activation of protein kinase C alpha and/or epsilon enhances transcription of the human endothelial nitric oxide synthase gene”, Mol. Pharmacol. 53 (1998) 630. Briefly, a 3.5 kB long fragment 5′ of the starting codon of the eNOS gene was cloned, sequenced and cloned in firefly luciferase expression plasmids to monitor activation of the eNOS promoter by reporter gene activity. A human endothelial cell line stable transfected and expressing this promoter-reporter construct was used for compound testing. Cells were incubated for 18 h with the compounds.
All compounds were dissolved in sterile dimethyl sulfoxide (DMSO). A final concentration of 0.5% DMSO in complete medium was allowed. Induction of reporter gene expression in these cells was measured using a standard luciferase assay system (Promega, Cat. No. E150) according to the manufacturer's instructions. Luciferase induction in cells incubated with compounds were compared to those incubated with solvent alone. The ratio of both activities (transcription induction ratio, TIR) was plotted as a function of compound concentration. […] EC50 values of transcription induction ratios as a function of compound concentration were determined graphically.

EC50	SMILES
< 500 nM	CN(C)C(=O)[C@@H]1C[C@H]1c1ccc(-c2ccccc2F)nc1 (relative stereo) [Example 49, trans-2-[6-(2-Fluoro-phenyl)-pyridin-3-yl]-cyclopropanecarboxylic acid dimethylamide trifluoroacetic acid salt]
500 to 5000 nM	O=C([C@@H]1C[C@H]1c1ccc(-c2ccc(F)cc2)nc1)N1CCCC1 (relative stereo) [Example 46, {trans-2-[6-(4-fluoro-phenyl)-pyridin-3-yl]-cyclopropyl}-(pyrrolidin-1-yl)-methanone trifluoroacetic acid salt]
